The conditions of assay [1]: series exploring certain imidazolium compounds; cited from earlier work.
The subject of a further assay is Type IV collagen. Put plainly: In situ hybridization studies, Type IV collagen. The text has this: (§1) Cardiovascular risk correlates more closely with the systolic and the pulse pressure than with the diastolic pressure. In diabetic patients, the cardiovascular risk profile of diabetic patients is strongly correlated to duration of diabetes, glycemic control and blood pressure. Structural matrix proteins contribute to the function of vessels and the heart, and changes in the physical behavior of cardiovascular walls are believed to be important determinants of circulatory function. In elderly individuals, the loss of compliance in the aorta leads to isolated systolic hypertension, which in turn expands the arterial wall and thereby diminishes the dynamic range of elasticity.

For assay [2], the system named is collagen in cardiovascular tissues. Put plainly: Mass of collagen in cardiovascular tissues after treatment. To be noted: in vivo.
Excerpt: as §1

For a further assay, the system named is TGFbeta. Put plainly: In situ hybridization studies, TGFbeta.
Excerpt: as §1

Another assay concerns dog model for diabetes. Kind of assay: Dog model for diabetes, ventricular elasticity. Format: in vivo.
Excerpt: as §1

The test system of assay [3] is elderly patients with pulse pressures greater than 60 mm Hg. Put plainly: Phase IIa clinical trial. The class given is in vivo, human. The text has this: When the heart pumps blood into the vascular system, the ability of the arteries to expand helps to push blood through the body. When arteries become stiff, as they do in the natural process of aging, the ability of the arteries to expand is diminished and also has consequences for the heart. The heart has to work harder to pump the blood into the stiff arteries, and eventually hypertrophies (enlarges in size) to accomplish this. A hypertrophied heart is an inefficient pump, and is one of the disorders that leads to congestive heart failure. […] The potential clinical benefit of this is to lessen the effort that the heart must expend to push blood throughout the body. The effect is also believed to contribute to preventing hypertrophy and subsequent inefficiency of the heart, which inefficiency would contribute to congestive heart failure.
Atherosclerosis is a disease that involves deposition of blood lipids in plaque in the arteries throughout the body. In coronary arteries, accumulation of plaque progressively leads to reduced coronary flow, with occlusion of the arteries causing focal death of cardiac tissue (myocardial infarction, heart attack). If the amount of tissue that dies is large enough, death ensures. […] Reducing local deposits of plaque should eventually lessen the risk of myocardial infarction and death due to heart attacks.
Pulse pressure is the difference between systolic and diastolic blood pressure. In a young human, systolic pressure is typically 120 mm Hg and diastolic pressure is 80 mm Hg, resulting in a pulse pressure of 40 mm Hg. With age, in many individuals pulse pressure increases, largely due to the increase in systolic pressure that results from stiff vessel disease. In individuals with pulse pressure greater than 60 mm Hg there is an increased risk of death from cardiovascular morbidities. […] This decrease in pulse pressure was believed to be due primarily to the effect of the agent on lowering the systolic blood pressure.

The subject of a further assay is Rats. Kind of assay: Rat myocardial infarct model (coronary artery ligation), histological examination of hearts. The class given is in vivo. The conditions noted are these: daily intraperitoneal 10 mg/kg for 30 days before and 14 days after ligation; placebo 0.16±0.04 g; p=0.04. The protocol: Rats received a daily intraperitoneal dose of 10 mg/kg 3-[2-phenyl-2-oxoethyl]-4,5-dimethyl-thiazolium salt (compound A) (n=14) or placebo (n=15) for 30 days. The animals then underwent a thoracotomy and the left anterior descending coronary artery ligated. The chest was then closed and the animals allowed to recover for 14 days while continuing to be treated with compound A or placebo. The animals were then sacrificed and the hearts removed for histological examination. The weight of the infarcted tissue was 0.16±0.04 g for the placebo treated animals compared to 0.11±0.05 g for the compound A treated animals (p=0.04).

For assay [4], the system named is rodents, canines and primates. Put plainly: In vivo studies of vascular stiffening.
Excerpt: as §1

The values that follow come from US20020183365A1, “Method for treating fibrotic diseases or other indications IIIC” (priority 2000, published 2002).

Where a name gives a salt, the structure may show the parent alone.

For `Cc1ccc(C(=O)C[n+]2ccccc2)cc1.[Cl-]` [1-[2-(4-methylphenyl)-2-oxoethyl]-pyridinium chloride], the glucose lowering effect entry in assay [1] was “inactive”.
Take `Cc1sc[n+](CC(=O)c2ccccc2)c1C` [compound A, 3-[2-phenyl-2-oxoethyl]-4,5-dimethyl-thiazolium salt]: in the assay on Type IV collagen, the “expression of Type IV collagen” value is reported as “reduces the expression”. Besides, the “mass of collagen in cardiovascular tissues” value in assay [2] is recorded as “reduction in the mass of collagen”. In the assay on TGFbeta, the “expression of TGFbeta” value is on record as “reduces the expression”. Also, in the assay on dog model for diabetes, the “end diastolic pressure, indicator of ventricular elasticity” value was “returned to a value at about the mid-point between the disease impaired value and the value for control dogs”; the “end diastolic volume, indicator of ventricular elasticity” value was “returned to a value at about the mid-point between the disease impaired value and the value for control dogs”. In addition, the “stiffness of arteries, as measured by the ratio of stroke volume (ml) to pulse pressure (mm Hg)” value in assay [3] (Phase IIa clinical trial) is on record as “showed an ability to reverse the stiffness of arteries”. In addition, the “amount of circulating triglycerides (lipids)” value in assay [3] (Phase IIa trial) was “increased the amount of circulating triglycerides”. Further, the pulse pressure result in assay [3] (Phase IIa trial, elderly patients with pulse pressures greater than 60 mm Hg, statistically significant) is reported as “reduced pulse pressure”. The “weight of the infarcted tissue” value in the assay with Rats is 0.11 ± 0.05 g. Moreover, the vascular stiffening entry in assay [4] is “substantially ameliorating vascular stiffening”.
